ChEMBL document CHEMBL1177813, “Design and synthesis of trivalent ligands targeting opioid, cholecystokinin, and melanocortin receptors for the treatment of pain” (Bioorg Med Chem Lett, 2010)
Calls of active or inactive are those of the source. The calls are words filed in the database; no cut-off is given here. Where a SMILES comes first, the peptide text is derived from it. [ ]: non-standard residue; d: D form. Nle = CCCC[C@H](N)C(=O)O

Assays:
[1] = target: T1, Gastrin/cholecystokinin type B receptor (Homo sapiens, UniProt P32239); assay: Displacement of [125I]CCK-8(SO3) from human CCK2 receptor expressed in human HEK293 cells; format: cell-based
T1 sequence (P32239 whole entry): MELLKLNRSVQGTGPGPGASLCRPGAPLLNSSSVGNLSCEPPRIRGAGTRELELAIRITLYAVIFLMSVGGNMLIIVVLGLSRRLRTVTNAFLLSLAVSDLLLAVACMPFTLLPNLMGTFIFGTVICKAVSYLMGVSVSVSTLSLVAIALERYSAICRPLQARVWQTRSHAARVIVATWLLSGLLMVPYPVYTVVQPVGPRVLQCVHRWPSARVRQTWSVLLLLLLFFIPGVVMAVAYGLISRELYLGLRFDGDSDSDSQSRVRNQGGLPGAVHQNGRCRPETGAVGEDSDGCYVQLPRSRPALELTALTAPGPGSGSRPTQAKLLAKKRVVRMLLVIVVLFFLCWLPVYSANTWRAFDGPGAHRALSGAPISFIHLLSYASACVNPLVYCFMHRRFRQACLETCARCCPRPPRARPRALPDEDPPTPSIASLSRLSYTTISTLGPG

[2] = Agonist activity at CCK receptor in Hartley guinea pig ileum longitudinal muscle with myenteric plexus assessed as inhibition of electrically-stimulated muscle contraction at 1 uM relative to KCl; format: functional, Cavia porcellus; parameters: scale not given: the % may be the effect or the level left
Cavia porcellus = species on record: Cavia porcellus; assay: […] activity at CCK receptor in Hartley guinea pig ileum longitudinal muscle with myenteric plexus assessed as inhibition of CCK8-stimulated muscle contraction at 1 uM; format: functional, tissue-based
[3] = target: T2, Cholecystokinin receptor type A (Homo sapiens, UniProt P32238); assay: Displacement of [125I]CCK-8(SO3) from human CCK1 receptor expressed in human HEK293 cells; format: cell-based
T2 sequence (P32238 whole entry): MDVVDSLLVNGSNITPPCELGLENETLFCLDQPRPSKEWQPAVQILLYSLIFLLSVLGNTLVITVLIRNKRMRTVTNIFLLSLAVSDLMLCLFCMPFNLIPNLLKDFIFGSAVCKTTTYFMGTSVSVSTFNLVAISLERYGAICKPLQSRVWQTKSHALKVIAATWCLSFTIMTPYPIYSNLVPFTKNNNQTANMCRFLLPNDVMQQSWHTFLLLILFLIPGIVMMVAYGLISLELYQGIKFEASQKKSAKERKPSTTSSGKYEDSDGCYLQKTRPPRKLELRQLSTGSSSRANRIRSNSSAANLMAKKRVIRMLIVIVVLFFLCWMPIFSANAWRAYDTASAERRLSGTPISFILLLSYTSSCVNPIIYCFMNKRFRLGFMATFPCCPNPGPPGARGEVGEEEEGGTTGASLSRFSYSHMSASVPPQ

Mu-type opioid receptor [4] = target: Mu-type opioid receptor (Cavia porcellus, UniProt P97266); assay: Agonist activity at mu opioid receptor in guinea pig ileum assessed as inhibition of electrically-stimulated muscle contraction; format: functional, tissue-based
Melanocortin receptor 4 = Melanocortin receptor 4 (Homo sapiens, UniProt P32245); assay: Displacement of Eu-NDP-alphaMSH from human MC4 receptor expressed in human HEK293 cells; format: cell-based
Mu-type opioid receptor [5] = target: Mu-type opioid receptor (Rattus norvegicus, UniProt P33535); assay: Displacement of [3H]DAMGO from rat mu opioid receptor expressed in mouse HN9.10 cells; format: cell-based
[6] = target: Delta-type opioid receptor (Mus musculus, UniProt P32300); assay: Agonist activity at delta opioid receptor in mouse vas deferens assessed as inhibition of electrically-stimulated muscle contraction; format: functional, tissue-based
[7] = target: Delta-type opioid receptor (Homo sapiens, UniProt P41143); assay: Displacement of [3H]DPDPE from human delta opioid receptor expressed in mouse HN9.10 cells; format: cell-based
Delta-type opioid receptor (Homo sapiens, UniProt P41143), sequence (P41143 whole entry): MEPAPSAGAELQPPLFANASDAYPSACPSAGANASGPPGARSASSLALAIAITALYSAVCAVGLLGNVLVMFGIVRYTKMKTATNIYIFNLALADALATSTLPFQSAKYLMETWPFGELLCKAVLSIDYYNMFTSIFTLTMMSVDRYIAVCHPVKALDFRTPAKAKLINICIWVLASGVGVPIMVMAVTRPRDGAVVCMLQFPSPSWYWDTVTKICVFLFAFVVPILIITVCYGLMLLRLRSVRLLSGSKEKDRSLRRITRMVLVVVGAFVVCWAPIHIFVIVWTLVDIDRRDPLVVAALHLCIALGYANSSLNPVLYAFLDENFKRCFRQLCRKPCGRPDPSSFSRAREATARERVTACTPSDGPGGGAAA

Mu-type opioid receptor (Rattus norvegicus, UniProt P33535), sequence (P33535 whole entry): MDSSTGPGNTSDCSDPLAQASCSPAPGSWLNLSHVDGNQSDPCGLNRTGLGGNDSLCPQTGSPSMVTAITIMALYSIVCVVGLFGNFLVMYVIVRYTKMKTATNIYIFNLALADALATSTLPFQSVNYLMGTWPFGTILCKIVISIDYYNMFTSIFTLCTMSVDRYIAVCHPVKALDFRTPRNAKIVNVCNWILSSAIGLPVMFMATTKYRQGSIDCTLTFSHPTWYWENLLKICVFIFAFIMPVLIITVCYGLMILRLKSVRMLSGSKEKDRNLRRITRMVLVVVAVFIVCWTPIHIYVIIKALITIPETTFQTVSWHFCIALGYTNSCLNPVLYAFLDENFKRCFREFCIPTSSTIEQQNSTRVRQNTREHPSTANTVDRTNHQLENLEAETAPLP
Melanocortin receptor 4, sequence (P32245 whole entry): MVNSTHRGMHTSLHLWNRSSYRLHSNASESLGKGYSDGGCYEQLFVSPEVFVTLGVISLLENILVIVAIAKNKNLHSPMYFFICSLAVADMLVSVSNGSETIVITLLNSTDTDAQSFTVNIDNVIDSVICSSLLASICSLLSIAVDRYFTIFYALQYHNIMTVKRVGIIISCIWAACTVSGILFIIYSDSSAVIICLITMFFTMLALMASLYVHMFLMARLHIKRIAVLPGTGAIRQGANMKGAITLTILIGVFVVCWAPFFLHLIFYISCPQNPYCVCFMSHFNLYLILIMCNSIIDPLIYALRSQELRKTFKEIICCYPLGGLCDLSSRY
Mu-type opioid receptor (Cavia porcellus, UniProt P97266), sequence (P97266 whole entry): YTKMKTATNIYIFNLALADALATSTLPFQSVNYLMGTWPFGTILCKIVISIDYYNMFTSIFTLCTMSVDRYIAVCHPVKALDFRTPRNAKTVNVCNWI
Delta-type opioid receptor (Mus musculus, UniProt P32300), sequence (P32300 whole entry): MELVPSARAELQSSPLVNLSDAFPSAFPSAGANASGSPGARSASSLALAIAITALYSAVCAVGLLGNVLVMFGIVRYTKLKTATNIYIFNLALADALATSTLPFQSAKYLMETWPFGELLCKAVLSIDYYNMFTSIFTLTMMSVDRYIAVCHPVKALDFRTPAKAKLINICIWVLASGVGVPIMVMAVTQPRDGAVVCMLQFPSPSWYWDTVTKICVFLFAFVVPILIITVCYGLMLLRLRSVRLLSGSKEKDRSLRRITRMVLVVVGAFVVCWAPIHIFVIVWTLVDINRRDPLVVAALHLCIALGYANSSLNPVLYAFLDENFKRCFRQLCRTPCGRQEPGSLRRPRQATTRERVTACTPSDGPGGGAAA

With `Cc1cc(O)cc(C)c1C[C@H](N)C(=O)N1CC(=O)N[C@@H](Cc2cnc[nH]2)C(=O)N[C@H](Cc2ccccc2)C(=O)N[C@@H](CCCNC(=N)N)C(=O)N[C@@H](Cc2c[nH]c3ccccc23)C(=O)N[C@H](C(=O)N[C@@H](CC(=O)O)C(=O)N[C@@H](Cc2ccccc2)C(N)=O)CSSC[C@@H](N)C1=O` the Ki ([1]; hek293) was “Not Active”, the Activity [2] was 0% and the Ke (Cavia porcellus) was “inactive”.
For `CCCC[C@H](NC(=O)[C@H](Cc1c[nH]c2ccccc12)NC(=O)[C@H](CCCNC(=N)N)NC(=O)[C@@H](Cc1ccc2ccccc2c1)NC(=O)[C@H](Cc1cnc[nH]1)NC(=O)[C@H](Cc1ccccc1)NC(=O)[C@@H](C)NC(=O)[C@@H](N)Cc1c(C)cc(O)cc1C)C(=O)N[C@@H](CC(=O)O)C(=O)N[C@@H](Cc1ccccc1)C(N)=O`, the Activity [2] was 0% and the Ke (Cavia porcellus) was “inactive”.
Compound `CCCC[C@H](NC(=O)[C@H](Cc1c[nH]c2ccccc12)NC(=O)[C@H](CCCNC(=N)N)NC(=O)[C@@H](Cc1ccccc1)NC(=O)[C@H](Cc1cnc[nH]1)NC(=O)[C@H](Cc1ccccc1)NC(=O)CNC(=O)[C@@H](C)NC(=O)[C@@H](N)Cc1ccc(O)cc1)C(=O)N[C@@H](CC(=O)O)C(=O)N[C@@H](Cc1ccccc1)C(N)=O` has an IC50 [3] of 2.51 µM, a Ki ([3]; read-out: Ki) of 1.4 µM and an IC50 [1] of 0.0316 µM. For the same compound, the Ki ([1]; read-out: Ki) was 0.018 µM, the IC50 (Mu-type opioid receptor [4]) was 0.13 µM and the Activity [2] was 0%. For the same compound, the Ke (Cavia porcellus) was “inactive”, the IC50 (Melanocortin receptor 4) was 1.3 µM and the IC50 (Mu-type opioid receptor [5]) was 0.0316 µM. For the same compound, the Ki (Mu-type opioid receptor [5]) was 0.014 µM, the IC50 [6] was 0.04 µM and the IC50 [7] was 0.0126 µM. The Ki [7] was 0.0062 µM.
Work on `C[C@@H](NC(=O)[C@@H](N)Cc1ccc(O)cc1)C(=O)NCC(=O)N[C@@H](Cc1ccccc1)C(=O)NCCCC[C@H](NC(=O)[C@H](Cc1c[nH]c2ccccc12)NC(=O)[C@H](CCCN=C(N)N)NC(=O)[C@@H](Cc1ccc(Cl)cc1)NC(=O)[C@@H](N)Cc1cnc[nH]1)C(=O)N[C@@H](CC(=O)O)C(=O)N[C@@H](Cc1ccccc1)C(N)=O` yielded an IC50 (Mu-type opioid receptor [4]) of 0.33 µM.
With `CCCC[C@H](NC(=O)[C@@H](N)Cc1ccc(O)cc1)C(=O)N[C@@H](CC(=O)O)C(=O)N[C@@H](Cc1ccccc1)C(N)=O` (H-Y[Nle]DF-NH2) the Ki ([3]; hek293) was “Not Active”.
With `CCCC[C@H](NC(=O)[C@H](Cc1c[nH]c2ccccc12)NC(=O)[C@H](CCCN=C(N)N)NC(=O)[C@@H](Cc1ccc2ccccc2c1)NC(=O)[C@H](Cc1cnc[nH]1)NC(=O)[C@H](Cc1ccccc1)NC(=O)[C@@H](C)NC(=O)[C@@H](N)Cc1c(C)cc(O)cc1C)C(=O)N[C@@H](CC(=O)O)C(=O)N[C@@H](Cc1ccccc1)C(N)=O` the IC50 [3] was 0.000794 µM, the IC50 [1] was 0.2 µM and the Ki ([1]; read-out: Ki) was 0.18 µM. The IC50 (Mu-type opioid receptor [4]) was 0.066 µM, the IC50 (Melanocortin receptor 4) was 0.5 µM and the IC50 (Mu-type opioid receptor [5]) was 0.01 µM. The Ki (Mu-type opioid receptor [5]) was 0.0049 µM, the IC50 [6] was 0.11 µM and the IC50 [7] was 0.00794 µM. For the same compound, the Ki [7] was 0.0037 µM.
`CCCC[C@H](NC(=O)[C@H](Cc1c[nH]c2ccccc12)NC(=O)[C@H](CCCN=C(N)N)NC(=O)[C@@H](Cc1ccc2ccccc2c1)NC(=O)[C@H](Cc1cnc[nH]1)NC(=O)[C@@H](N)Cc1ccccc1)C(N)=O` gave an IC50 (Melanocortin receptor 4) of 0.2 µM.
